Columns and labels:
[1] = system: DLD-1 BRCA2−/− (HD 105-007); experiment: Anti-proliferation assay 144 h (ATPlite); type: cell-based; settings: for Fold Sensitivity of BRCA2^-/- line: BRCA2^-/- line relative to DLD-1 Parental line; for Fold Sensitivity of BRCA2^-/- line / IC50: 144 h proliferation assay; for IC50: Homo sapiens, DLD-1, ATPlite, read-out: Relative IC50, DLD-1 BRCA2^-/-
Protocol: (§1) The sensitivity of DLD-1 Parental and BRCA2−/− isogenic cell lines Compound I and Compounds 1 and 7-10 were evaluated in 144 h proliferations assays. Cells were seeded into 384-well plates in McCoy's 5A medium supplemented with 10% FBS at the seeding densities indicated below and allowed to adhere overnight prior to addition of compound or vehicle control. Compounds were weighed out and stock solutions in DMSO were made immediately prior to treatment of cells. Serial dilutions of compounds were prepared in DMSO and diluted in media before being added to cells in quadruplicate to give the final concentrations indicated on graphs (10 μM top concentration, 9-point semi-log dilution series, 0.2% DMSO final concentration for all treatments). Cells were incubated with compounds for 144 h at 37° C., 5% C02 in a humidified atmosphere. At the assay endpoint, ATPlite (Perkin Elmer) reagent was added at a volume equal to the volume of cell culture medium already present in each well and the plates processed as per the manufacturer's instructions. Media only background values were subtract and ted and the data was analyzed using a 4-parameter logistic equation in GraphPad Prism. DLD-1 Parental (HD PAR-008) DLD-1 BRCA2−/− (HD 105-007) used.

[2] = system: DLD-1 Parental (HD PAR-008); experiment: Anti-proliferation assay 144 h (ATPlite); type: cell-based; settings: Homo sapiens, 144 h proliferation assay, * = value should be considered as approximate, read-out: Relative IC50, DLD-1 Parental
Protocol: as §1

[3] = Stability of stock solutions and of spiked human plasma (LC/MS/MS method validation); type: physicochemical; settings: refrigeration (2° C. to 8° C.)
Protocol: A reference standard stock solution of Compound I was prepared by weighing the reference standard and dissolving it in a solution of 50:50:0.1 (v/v) mixture of ACN:deionized water:formic acid, followed by vortex-mixing and sonication. This stock solution was used for preparation of the calibration standards. Another stock solution of Compound I was prepared following the same procedure and was used for preparation of the QC samples. Both stock solutions were prepared previously and stored at refrigeration (2° C. to 8° C.) prior to use on the day of assay. […] Both solutions were used within the established stability timeframe.
The internal standard stock solution was previously prepared by weighing Compound A (2-(4-Methyl-piperazin-1-yl)-5-oxo-5H-7-thia-1,11b-diaza-benzo[c]fluorene-6-carboxylic acid (5-methyl-pyrazin-2-ylmethyl)-amide) and dissolving it in a solution of 50:50:0.1 (v/v) mixture of ACN:deionized water:formic acid. This stock solution was stored at refrigeration (2° C. to 8° C.) prior to use. […] This solution was used within the established stability timeframe. On the day of assay, this solution was further diluted with a solution of 50:50:0.1 (v/v) mixture of ACN:deionized water:formic acid into a solution for spiking.
This assay method was based on a nominal quantitation range of 5.00 ng/mL to 5000 ng/mL. Validation results met their acceptance criteria for the assessments of calibration range, assay accuracy and precision, hemolysis matrix effects, lipidemic matrix effects, selectivity and specificity, dilution integrity, and assay ruggedness with respect to changing analysts and instrument, and over the run time anticipated for a prospective test sample run. Chromatographic carryover was not observed. A 6-minute assay run time was validated. […] (−63° C. to −77° C.) and following 4 cycles of freeze/thaw.

Structure (SMILES) | sensitivity of the BRCA2 null line relative to the parental line (in words) ([1]; 144 h) | Fold Sensitivity of BRCA2^-/- line [1] | IC50 [1] | IC50 [2] | stock solution stable (50:50:0.1 ACN:deionized water:formic acid) [3]
CN1CCCN(c2ccc3c(=O)c(C(N)=O)c4sc5ccccc5n4c3n2)CC1 [Compound 1, 2-(4-methyl-1,4-diazepan-1-yl)-5-oxo-5H-benzo[4,5]thiazolo[3,2-a][1,8]naphthyridine-6-carboxamide] | extremely sensitive | 400 | 4.7 nM | 1880 nM | 
Cc1cnc(CNC(=O)c2c(=O)c3ccc(N4CCCNCC4)nc3n3c2sc2ccccc23)cn1 [Compound 7, 2-(1,4-diazepan-1-yl)-N-((5-methylpyrazin-2-yl)methyl)-5-oxo-5H-benzo[4,5]thiazolo[3,2-a][1,8]naphthyridine-6-carboxamide] |  | 21 | 560 nM | ~12000 nM | 
CN1CCCN(c2ccc3c(=O)c(C(=O)NCCCN4CCCCCC4=O)c4sc5ccccc5n4c3n2)CC1 [Compound 8, 2-(4-methyl-1,4-diazepan-1-yl)-N-(3-(2-oxoazepan-1-yl)propyl)-5-oxo-5H-benzo[4,5]thiazolo[3,2-a][1,8]naphthyridine-6-carboxamide] |  | 74 | 7.2 nM | 530 nM | 
Cc1cnc(CNC(=O)c2c(=O)c3ccc(N4CCC[N+](C)([O-])CC4)nc3n3c2sc2ccccc23)cn1 (centres unmarked) [Compound 9, 2-(4-methyl-4-oxidodiazepan-4-ium-1-yl)-N-((5-methylpyrazin-2-yl)methyl)-5-oxo-5H-benzo[4,5]thiazolo[3,2-a][1,8]naphthyridine-6-carboxamide] |  | 5.5 | 1590 nM | ~8780 nM | 
Cc1cnc(C(=O)NC(=O)c2c(=O)c3ccc(N4CCCN(C)CC4)nc3n3c2sc2ccccc23)cn1 [Compound 10, 2-(4-methyl-1,4-diazepan-1-yl)-N-((5-methylpyrazin-2-yl)carbonyl)-5-oxo-5H-benzo[4,5]thiazolo[3,2-a][1,8]naphthyridine-6-carboxamide] |  | 2.5 | 620 nM | 1580 nM | 
Cc1cnc(CNC(=O)c2c(=O)c3ccc(N4CCN(C)CC4)nc3n3c2sc2ccccc23)cn1 [Compound A, 2-(4-Methyl-piperazin-1-yl)-5-oxo-5H-7-thia-1,11b-diaza-benzo[c]fluorene-6-carboxylic acid (5-methyl-pyrazin-2-ylmethyl)-amide, reference compound] |  |  |  |  | 384 days

Reference: patent publication US11524012B1, “Quinolone analogs and their salts, compositions, and method for their use” (Senhwa Biosciences, Inc., priority 2018, dated 2022)
